Source: US8119614B2, “Substitution derivatives of N6-benzyladenosine, methods of their preparation, their use for preparation of drugs, cosmetic preparations and growth regulators, pharmaceutical preparations, cosmetic preparations and growth regulators containing these compounds” (Ustav Experimentalni Botaniky Akademie Ved Ceske Republiky, priority 2002, dated 2012)

Experiments:
[1] = tested on: Rosa hybrida ‘Pailin’; experiment: Early shoot senescence inhibition of tissue cultured roses; assay type: in vivo; conditions: 10 μM in medium
Method: Rosa hybrida ‘Pailin’ (a cut rose) was cultured in 350 ml vessels with a screw on polycarbonate lid. Each culture vessel contained 100 ml autoclaved medium (120° C., 20 min). The cultures were maintained at 23±2° C. under a 16 h photoperiod at […] m^−2 s^−1 PAR. The basal medium (MBR) contained Murashige and Skoog (1962) macroelements, microelements and vitamins, 36.7 mg/l NaFeEDTA, 50 mg/l NaFeEDDHA, […], 30 g/l sucrose, 100 mg/l glycine, 50 mg/l calcium pantothenate, 100 mg/l L-glutamine and 7 g/l agar-agar. This medium was supplemented with 10 μM of the tested cytokinin. New cytokinins were filter sterilised and added after autoclaving the medium in the vessels. 6-Benzylaminopurine (BAP) was used as a standard compound; the control medium didn't contain any cytokinin. After a culture period of 6 weeks, scoring senescence symptoms was started.

[2] = tested on: p21^WAF-1 protein; experiment: Induction of p21^WAF-1 protein in MCF-7 cells (SDS-PAGE, immunodetection); assay type: cell-based, human
Method: MCF-7 cells cultured at 37° C. in 5% CO2 atmosphere in D-MEM medium supplemented with 10% foetal calf serum were treated with 2OH3MeOBAPR concentrations range of 0-100 μM. 2OH3MeOBAPR was added into the medium from the 100 mM storage solution in DMSO. Cells were harvested after 12 hours incubation with 2OH3MeOBAPR, centrifuged (1000 rpm, 4° C., 5 min), washed twice by ice-cold PBS and re-centrifuged. These washed cells were then lysed by 1×CSB (loading buffer for SDS-PAGE, i.e. electrophoresis of proteins in polyacrylamide gel containing SDS). Cell lysate proteins were separated by SDS-PAGE and transferred onto a nitrocelulose (NC) membrane. NC membrane was blocked by 5% skimmed milk, 0.1% Tween 20 in PBS. Protein level of p21^WAF-1 and actin (as a loaded protein volume control) were detected immunochemically using commercially available specific monoclonal antibodies anti-p21^WAF-1 (Ab-1, Calbiochem) and anti-Actin (Clone AC-40, Sigma-Aldrich). The primary antibodies bind to target proteins were detected using rabbit secondary peroxidase-labeled antibody (RAM-Px, DAKO), followed by chemiluminiscence (ECL, Amersham-Pharmacia).
MCF-7 cells were incubated in presence of 1 μM 2OH3MeOBAPR. Treated cells were harvested and lysed after various time periods of 2OH3MeOBAPR treatment. […]

[3] = tested on: HL-60 cells; experiment: HL-60 cell proliferation and viability (FDA/PI staining); assay type: cell-based, human
Method: (§1) Cell culture. A suspension of human promyelocytic HL-60 cells was cultured in RPMI-1640 medium supplemented with a 10% calf foetal serum and antibiotics in 5% CO2 atmosphere at 37° C. Cells were maintained at density from 1×10^5 to 6×10^5 cells per ml. HL-60 cells were obtained from ECACC.
Cell viability assay. Double staining with fluorescein diacetate (FDA) and propidium iodide (PI) for discrimination of dead and living cells was used. Cells were stained in growing medium with PI at a concentration 10 μg/ml 5 min later FDA was added at a concentration 1 μg/ml. The percentage of dead cells (i.e., red stained cells) was evaluated using fluorescence microscopy (Mlejnek and Kolman 1999).

[4] = tested on: HL-60 cells; experiment: Cell cycle analysis (flow cytometry); assay type: cell-based, human; conditions: 5 μM, 24 h (FIG. 8)
Method: as §1
Cell cycle analysis. Cells were washed in PBS and then fixed in 70% ethanol at −20° C. over night. Fixed cells are washed in PBS and stained in PBS containing PI (20 μg/ml) and RNase A (100 μg/ml) for 30 min at 37° C. prior to FACScan analysis (Mlejnek and Kolman 1999).

[5] = tested on: caspase-3; experiment: Caspase protease activity measurement in cell extracts, caspase-3; assay type: cell-based, human; conditions: 20 μM, substrate Ac-DEVD-AMC (FIG. 9)
Method: Caspase protease activity measurement. Cells were washed in PBS and then extracted in buffer [50 mM HEPES, pH 7.4, 1 mM EDTA, 0.1% Chaps, 5 mM DTT, and proteinase inhibitor cocktail (Roche)] on ice. Cell extracts were centrifuged for 30 min at 30 000×g at 4° C. Clarified extract were immediately analysed or stored at −80° C. Measurement of proteolytic activity was done using synthetic fluorogenic substrates Ac-DEVD-AMC and Ac-LEHD-AMC for caspase-3 and -9, respectively. The assay was carried out in 1 ml tubes, aliquots of lysates (200-300 μg of total protein) were mixed with 1 ml of buffer (25 mM PIPES/KOH, 2 mM EGTA, 5 mM DTT, and 0.1% Chaps, pH 7.3) and reactions were initiated by adding 50 μM substrate. Samples were incubated for 1 hour at 30° C. before the fluorescence was determined. Excitation and emission wavelengths were the same for both substrates (380 nm and 445 nm, respectively).

| Structure (SMILES) | senescence / dying of rose explants (in words) ([1]; listed as 3MeOBAPR) | senescence / dying of rose explants (in words) ([1]; listed as mMeOBAPR) | p21^WAF-1 protein induction in dependence on duration of incubation ([2]; 1 μM, 6-24 hours after addition) | p21^WAF-1 protein induction in dependence on concentration ([2]; 12 hours, 0-100 μM, effective at units of μmol/liter) | inhibition of HL-60 cell proliferation ([3]; 2.5-60 μM (FIG. 4)) | cytotoxicity of the compound itself versus its phosphorylated forms ([3]; HL-60 cells) | effect on cell cycle [4] | activation of caspase-3 [5] |
| --- | --- | --- | --- | --- | --- | --- | --- | --- |
| COc1cccc(CNc2ncnc3c2ncn3[C@@H]2O[C@H](CO)[C@@H](O)[C@H]2O)c1 [3-methoxybenzylamino, 6-(3-methoxybenzylamino)purine riboside] | Even after 121 days almost all plants were still alive | vigorous Rosa plantlet after 121 days of cultivation |  |  |  |  |  |  |
| COc1cccc(CNc2ncnc3c2ncn3[C@@H]2O[C@H](CO)[C@@H](O)[C@H]2O)c1O [2-hydroxy-3-methoxybenzylamino, 6-(2-hydroxy-3-methoxybenzylamino)purine riboside] |  |  | Efficient p21^WAF-1 protein induction is achieved | Efficient p21^WAF-1 protein induction is achieved | inhibit cell proliferation | is not cell cytotoxic by itself | does not inhibit cell cycle in certain control point(s), but rather unspecifically | activate caspase proteases, especially caspase-9 and -3 |
